Earlier results in patent US20070105848A1 (priority 2005, published 2007).

Tests used:
[1] = tested on: adult humans; settings: one week to 19 months, 100 mg b.i.d. or t.i.d. orally or 100 mg i.v.
[2] = molecular target: Plasmodium falciparum glutathione reductase (Plasmodium falciparum, UniProt O15770)
[3] = tested on: methemoglobinemia; settings: i.v., 1 mg/kg body weight
[4] = tested on: malaria

Plasmodium falciparum glutathione reductase, sequence (O15770 47-546): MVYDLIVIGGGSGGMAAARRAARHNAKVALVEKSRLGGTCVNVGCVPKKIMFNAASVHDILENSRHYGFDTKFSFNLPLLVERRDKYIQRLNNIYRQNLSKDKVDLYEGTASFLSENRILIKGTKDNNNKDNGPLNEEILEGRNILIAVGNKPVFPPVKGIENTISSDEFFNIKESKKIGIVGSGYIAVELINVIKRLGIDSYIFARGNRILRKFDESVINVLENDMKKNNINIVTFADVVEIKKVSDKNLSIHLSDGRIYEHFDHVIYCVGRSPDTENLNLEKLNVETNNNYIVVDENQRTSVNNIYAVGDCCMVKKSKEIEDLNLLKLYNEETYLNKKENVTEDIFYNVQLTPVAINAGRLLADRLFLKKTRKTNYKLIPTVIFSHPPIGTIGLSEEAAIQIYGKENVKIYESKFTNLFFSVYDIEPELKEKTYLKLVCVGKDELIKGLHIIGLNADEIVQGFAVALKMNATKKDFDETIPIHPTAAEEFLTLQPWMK

In the case of `CN(C)c1ccc2nc3ccc(N(C)C)cc3[s+]c2c1.[Cl-]` [Methylene blue, 3,7-bis(dimethylamino)-phenothiazin-5-ium chloride], the “side effects on prolonged administration” value [1] is given as “minimal side effects”, the “inhibition of Plasmodium falciparum glutathione reductase” value [2] is given as “selective inhibitor” and the treatment of methemoglobinemia [3] is given as “effective”. For the same molecule, the antimalarial activity [4] was “intrinsic antimalarial activity” and the chloroquine sensitization [4] was “can act as a chloroquine sensitizer”.
